Tests used:
[1] = refractive index (Na D-line) (dimensionless); settings: 298.15 K; 101.33 kPa; Liquid; Standard Abbe refractometry
[2] = Liquid; for mass density: 298.15 K, 101.33 kPa

CCCCOC(C)=O [butyl ethanoate]
Settings	mass density [kg/m3]	refractive index
[1]	–	1.3916
[2]	876.02	–

[2], Ebulliometric method (Recirculating still)
Settings	vapor or sublimation pressure [kPa]
334.36 K	9.99
336.53 K	10.98
338.56 K	11.99
342.2 K	13.97
345.47 K	15.99
348.37 K	17.97
351.02 K	19.98
353.45 K	21.97
355.72 K	23.97
357.84 K	25.98
359.79 K	27.92
362.58 K	30.98
365.1 K	33.92
367.5 K	36.96
369.74 K	39.97
373.18 K	44.92
376.31 K	49.9
379.18 K	54.92
381.89 K	59.93
384.4 K	64.95
386.74 K	69.92
388.96 K	74.95
391.05 K	79.91
393.02 K	84.83
394.94 K	89.87
396.72 K	94.73
399.05 K	101.3

CCCCO [butan-1-ol]
Settings	mass density [kg/m3]	refractive index
[1]	–	1.396
[2]	805.6	–

Settings	vapor or sublimation pressure [kPa]
[2], 390.46 K	101.3

CC(=O)O [acetic acid]
Settings	mass density [kg/m3]	refractive index
[1]	–	1.3696
[2]	1043.9	–

[2], Ebulliometric method (Recirculating still)
Settings	vapor or sublimation pressure [kPa]
328.56 K	9.98
330.65 K	10.97
332.65 K	11.98
336.23 K	13.97
339.41 K	15.97
342.25 K	17.98
344.81 K	19.98
347.19 K	21.98
349.4 K	23.98
352.43 K	26.97
355.18 K	29.96
357.72 K	32.98
360.09 K	35.94
362.26 K	38.96
365 K	42.93
366.3 K	44.95
369.3 K	49.94
372.09 K	54.93
374.63 K	59.83
377.03 K	64.87
379.25 K	69.84
381.39 K	74.82
383.35 K	79.71
385.23 K	84.52
387.1 K	89.81
388.77 K	94.52
390.91 K	101.3

Source: the NIST ThermoML archive (doi:10.1021/je700411p)
